We go through nine molecules from PMC12567041 (Pharmaceutics, 2025).

The conditions of series [1]: cited from earlier work.
A short description of series [2]: In vitro stability study in human feces. The conditions noted are these: after 20 h. The class given is in vitro ADME.
The conditions of series [3]: cited from earlier work. This is another data set of the same source.
Series [4] is described as follows: in vitro. The conditions noted are these: dog, MDCK.
Series [5] has as its target T1, UGT1A4 (Homo sapiens, UniProt P22310).
T1 sequence (P22310 29-534): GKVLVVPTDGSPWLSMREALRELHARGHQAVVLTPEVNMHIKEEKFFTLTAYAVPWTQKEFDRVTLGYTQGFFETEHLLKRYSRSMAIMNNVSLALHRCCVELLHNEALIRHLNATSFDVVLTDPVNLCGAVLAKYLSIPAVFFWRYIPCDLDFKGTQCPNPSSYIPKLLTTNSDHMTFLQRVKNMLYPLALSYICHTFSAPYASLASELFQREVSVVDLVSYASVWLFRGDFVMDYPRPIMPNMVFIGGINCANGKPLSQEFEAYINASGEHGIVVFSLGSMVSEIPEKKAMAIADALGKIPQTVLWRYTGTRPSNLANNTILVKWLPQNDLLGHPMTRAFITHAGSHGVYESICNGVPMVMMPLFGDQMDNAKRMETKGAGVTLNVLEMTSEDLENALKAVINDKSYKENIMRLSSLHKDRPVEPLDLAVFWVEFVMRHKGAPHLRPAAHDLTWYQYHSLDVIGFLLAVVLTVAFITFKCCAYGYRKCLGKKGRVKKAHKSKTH
In words: Inhibition of recombinant UGT1A4 by imatinib. The class given is in vitro ADME.

Structures are written as SMILES.

Take `Cn1c(=O)c2c(ncn2C)n(C)c1=O` [Caffeine, caffeine]: in series [1] (probe substrate property), the “fm by CYP1A2” value is reported as “≈ 0.9”.
Consider `O=C(Nc1ccc(OC(F)(F)Cl)cc1)c1cnc(N2CC[C@@H](O[C@@H]3O[C@H](C(=O)O)[C@@H](O)[C@H](O)[C@H]3O)C2)c(-c2ccn[nH]2)c1` [M30.5], for which, in series [2], the “stability in human feces” value is listed as “almost completely hydrolyzed back to asciminib”. Besides, the “share of the total AUC” value in series [3] (circulating metabolite) is given as 4.93%. For the same molecule, the “share of the administered dose” value in series [3] (urinary metabolite) is on record as 5.4–8.4%.
Regarding `COc1ccc2[nH]c([S+]([O-])Cc3ncc(C)c(OC)c3C)nc2c1` (centres unmarked) [Omeprazole, omeprazole], the “fm by CYP2C19” value in series [1] (CYP2C19 normal metabolizers) was “≈ 0.9”. For the same molecule, the “fm by CYP3A” value in series [1] (probe substrate property) is on record as “≈ 0.1”.
As for `Cc1nnc(C(=O)NC(C)(C)c2nc(C(=O)NCc3ccc(F)cc3)c(O)c(=O)n2C)o1` [Raltegravir, raltegravir], the “share eliminated by renal clearance” value in series [1] (assumption of the raltegravir model) is 9%.
Turning to `CCOc1cc(CC(=O)N[C@@H](CC(C)C)c2ccccc2N2CCCCC2)ccc1C(=O)O` [Repaglinide, repaglinide], in series [1] (probe substrate property), the “fm by CYP2C8” value is recorded as “≈ 0.7” and the “fm by CYP3A” value is listed as “≈ 0.3”.
By Papp A→B is commonly meant how fast a substance crosses the layer from the apical side. Turning to `C[C@H]1[C@H](NC(=O)/C(=N\OC(C)(C)C(=O)O)c2csc(N)n2)C(=O)N1S(=O)(=O)O` [aztreonam, reference compound], in series [4], the Papp A→B is 0.24 ×10⁻⁶ cm/s.
What is called IC50 is the midpoint of a concentration-inhibition curve. Turning to `Cc1ccc(NC(=O)c2ccc(CN3CCN(C)CC3)cc2)cc1Nc1nccc(-c2cccnc2)n1` [imatinib], the IC50 in series [5] worked out at 15 µM.
Regarding `CC(C)NCC(O)COc1cccc2ccccc12` (centres unmarked) [propranolol, reference compound], the Papp A→B in series [4] worked out at 36 ×10⁻⁶ cm/s.
As for `CN(CCOc1ccc(CC2SC(=O)NC2=O)cc1)c1ccccn1` (centres unmarked) [rosiglitazone], in series [1] (probe substrate property), the “fm by CYP2C8” value is reported as “≈ 0.6” and the “fm by CYP2C9” value is “≈ 0.3”.
